Tests used:
[1] = Blood concentration of L-DOPA following oral administration of L-DOPA or an L-DOPA derivative to Beagle dogs; details: three Beagle dogs; for L-DOPA at the peak / area under the curve / time for reaching the peak: L-DOPA in blood after oral administration; for [L-DOPA] (μg/ml) at time (hours) 0.5 / [L-DOPA] (μg/ml) at time (hours) 1.0 / [L-DOPA] (μg/ml) at time (hours) 1.5 / [L-DOPA] (μg/ml) at time (hours) 2.0 / [L-DOPA] (μg/ml) at time (hours) 3.0 / [L-DOPA] (μg/ml) at time (hours) 4.0 / [L-DOPA] (μg/ml) at time (hours) 6.0: blood; for [L-DOPA] (μg/ml) at time (hours) 0.5: 0.5 hours after oral administration of 0.1 of L-DOPA or equivalent amount of derivative; for [L-DOPA] (μg/ml) at time (hours) 1.0: 1.0 hours after oral administration of 0.1 of L-DOPA or equivalent amount of derivative; for [L-DOPA] (μg/ml) at time (hours) 1.5: 1.5 hours after oral administration of 0.1 of L-DOPA or equivalent amount of derivative; for [L-DOPA] (μg/ml) at time (hours) 2.0: 2.0 hours after oral administration of 0.1 of L-DOPA or equivalent amount of derivative; for [L-DOPA] (μg/ml) at time (hours) 3.0: 3.0 hours after oral administration of 0.1 of L-DOPA or equivalent amount of derivative; for [L-DOPA] (μg/ml) at time (hours) 4.0: 4.0 hours after oral administration of 0.1 of L-DOPA or equivalent amount of derivative; for [L-DOPA] (μg/ml) at time (hours) 6.0: 6.0 hours after oral administration of 0.1 of L-DOPA or equivalent amount of derivative;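 on all read-outs here: dogs of both sexes, 12 to 14 Kg body weight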
Excerpt: Reference to (a) refers to the values obtained from three Beagle dogs for each compound tested, the Beagle dogs being of both sexes and weighing from 12 to 14 Kg.
Reference to [L-DOPA] refers to the concentration of L-DOPA

[2] = Coutinaho, Spiegel et al. (1971); Weiss and Rossi (1963); cited from earlier work

Structure (SMILES) | L-DOPA at the peak [1] | area under the curve [1] | time for reaching the peak [1] | [L-DOPA] (μg/ml) at time (hours) 0.5 [1] | [L-DOPA] (μg/ml) at time (hours) 1.0 [1] | [L-DOPA] (μg/ml) at time (hours) 1.5 [1] | [L-DOPA] (μg/ml) at time (hours) 2.0 [1] | [L-DOPA] (μg/ml) at time (hours) 3.0 [1] | [L-DOPA] (μg/ml) at time (hours) 4.0 [1] | [L-DOPA] (μg/ml) at time (hours) 6.0 [1] | half-life of L-DOPA in the bloodstream [2]
CC(=O)Oc1ccc(C[C@H](N)C(=O)OCc2ccccc2)cc1OC(C)=O.Cl [Compound (II), 3,4-diacetyloxy-L-phenylalanine-benzyl ester hydrochloride] | 2.3 µg/mL | 5.96 µg/h/mL | 0.5 h | 1.71 µg/mL | 1.30 µg/mL | 1.08 µg/mL | 0.55 µg/mL | 0.20 µg/mL | 0.14 µg/mL | 0.05 µg/mL | –
CC(=O)Oc1ccc(C[C@H](N)C(=O)NCC(=O)O)cc1OC(C)=O.Cl [Compound (V), 3,4-diacetyloxy-L-phenylalanyl-glycine hydrochloride] | 1.8 µg/mL | 5.30 µg/h/mL | 1.2 h | 0.26 µg/mL | 1.30 µg/mL | 1.62 µg/mL | 0.80 µg/mL | 0.23 µg/mL | 0.03 µg/mL | 0 µg/mL | –
CC(=O)Oc1ccc(C[C@H](NC(=O)CN)C(=O)O)cc1OC(C)=O.Cl [Compound (III), glycyl-3,4-diacetyloxy-L-phenylalanine-hydrochloride] | 2.4 µg/mL | 7.25 µg/h/mL | 0.75 h | 1.34 µg/mL | 1.95 µg/mL | 1.21 µg/mL | 0.43 µg/mL | 0.27 µg/mL | 0.13 µg/mL | 0.02 µg/mL | –
N[C@@H](Cc1ccc(O)c(O)c1)C(=O)O [(0), 3,4-dihydroxy-L-phenylalanine, reference compound] | 0.9 µg/mL | 2.6 µg/h/mL | 1.8 h | 0.14 µg/mL | 0.64 µg/mL | – | 0.87 µg/mL | – | 0.22 µg/mL | 0.11 µg/mL | approximately 45 minutes
COC(=O)[C@@H](N)Cc1ccc(OC(C)=O)c(OC(C)=O)c1.Cl [Compound (I), 3,4-diacetyloxy-L-phenylalanine-methyl ester, HCl] | 1.6 µg/mL | – | – | – | – | – | 0.39 µg/mL | 0.12 µg/mL | – | – | –
COC(=O)[C@H](Cc1ccc(OC(C)=O)c(OC(C)=O)c1)NC(=O)CN.Cl [Compound (IV), glycyl-3,4-diacetyloxy-L-phenylalanine-methyl ester hydrochloride] | 1.7 µg/mL | 3.38 µg/h/mL | 0.80 h | 0.79 µg/mL | 1.17 µg/mL | 0.51 µg/mL | 0.33 µg/mL | 0.08 µg/mL | 0.02 µg/mL | 0 µg/mL | –

Source: patent US4035507A, “Novel, transient pro-drug forms of L-DOPA to treat Parkinson's disease” (Interx Research Corporation, priority 1976, dated 1977)
